Results as given in ChEMBL document CHEMBL5338755, “Thiophene Carboxamide Analogs with Long Alkyl Chains Comprising Ethylene Glycol Units Inhibit Glioblastoma Cell Proliferation by Activating AMPK” (J Med Chem, 2023).
Activity calls are given as the source filed them. The rule behind the calls is not given here.

Tests used:
Glioblastoma stem cell [1] = experiment: Inhibition of cell proliferation of human Glioblastoma stem cell assessed as reduction in viable cell number at 100 to 500 nM measured after 72 hrs by trypan blue exclusion assay; assay type: functional, cell-based; conditions: dose 100-500 nM
Glioblastoma stem cell [2] = experiment: Activation of AMPK in human Glioblastoma stem cell assessed as decrease in intracellular ATP level at 500 nM measured after 48 hrs by celltiter-glo luminescent cell viability assay; assay type: cell-based; conditions: filed as activator
Glioblastoma stem cell [3] = experiment: Activation of AMPK in human Glioblastoma stem cell assessed as increase in AMP/ATP ratio at 500 nM measured after 48 hrs; assay type: cell-based; conditions: filed as activator
Glioblastoma cell line [4] = experiment: Antitumor activity against human Glioblastoma stem cell xenografted in mouse model assessed as improvement in event-free survival rate at 10 mg/kg, ip administered 3 times in a week for 40 days; assay type: functional, organism-based; conditions: time 40.0 day
U-251 [5] = experiment: Synergistic antiproliferative activity against human U-251 cells assessed as combination index at ED75 concentration incubated for 6 days in presence of temozolomide by trypan blue staining based automated cell counter analysis; assay type: functional; conditions: time 6 day
U-251 [6] = experiment: Synergistic antiproliferative activity against human U-251 cells assessed as combination index at ED50 concentration incubated for 6 days in presence of temozolomide by trypan blue staining based automated cell counter analysis; assay type: functional; conditions: time 6 day
U-251 [7] = experiment: Synergistic antiproliferative activity against human U-251 cells incubated for 6 days in presence of temozolomide by trypan blue staining based automated cell counter analysis; assay type: functional; conditions: U-251, 144 h, time 6 day, read-out: ED50 (the source's name)
Glioblastoma stem cell [8] = experiment: Activation of AMPK in human Glioblastoma stem cell assessed as increase in intracellular AMP level at 500 nM measured after 48 hrs by AMP-Glo assay; assay type: cell-based; conditions: filed as activator
[9] = Toxicity in CB-17 SCID mouse xenografted with human SW48 cells assessed as body weigh loss at 20 mg/kg administered daily and measured after 3 weeks; assay type: organism-based; conditions: in vivo, 504 h
SW48 = experiment: Antitumor activity against human SW48 cells xenografted in CB-17 SCID mouse assessed as reduction in tumor size at 20 mg/kg administered daily and measured after 3 weeks by vernier caliper method (reference value: 997+/-180 mm3); assay type: functional
[10] = Toxicity in CB-17 SCID mouse xenografted with human SW48 cells assessed as drug tolerance at 20 mg/kg administered daily and measured after 3 weeks; assay type: organism-based; conditions: in vivo, 504 h
Glioblastoma stem cell [11] = experiment: Activation of AMPK in human Glioblastoma stem cell assessed as inhibition of cell growth at 500 nM measured after 48 hrs; assay type: cell-based
Glioblastoma cell line [12] = experiment: Antitumor activity against human Glioblastoma stem cell xenografted in mouse model assessed as suppression of tumor growth by measuring luminescence signals at 10 mg/kg, ip administered 3 times in a week for and measured after 3 weeks by IVIS Lumina XR imaging system; assay type: functional, organism-based
Glioblastoma stem cell [13] = experiment: Activation of AMPK in human Glioblastoma stem cell assessed as increase in AMPK phosphorylation level at 500 nM measured after 48 hrs; assay type: cell-based
[14] = Antiproliferative activity against human Glioblastoma stem cell assessed as reduction in cell count at 100 to 500 nM measured after 72 hrs by trypan blue exclusion assay; assay type: functional; conditions: dose 100-500 nM
Glioblastoma stem cell [15] = experiment: Inhibition of cell proliferation of human Glioblastoma stem cell assessed as reduction in viable cell number at 500 nM measured after 72 hrs by trypan blue exclusion assay; assay type: functional, cell-based

SMILES: CCCCCCCCCCOCCOCCOCCOCCCCCCCCCCCCNC(=O)c1ccsc1
- inhibition (Glioblastoma stem cell [1]): Active
- Activity (Glioblastoma stem cell [2]): Active
- Activity (Glioblastoma stem cell [3]): Active
- Activity (Glioblastoma cell line [4]): Active
- CI (U-251 [5]): 0.765
- CI (U-251 [6]): 0.325
- EC50 (U-251 [7]): 0.043 µM
- Activity (Glioblastoma stem cell [8]): Active
- Activity [9]: Non-Toxic
- Activity (SW48): 352 mm3
- Activity [10]: Non-Toxic
- Activity (Glioblastoma stem cell [11]; filed as activator): Active
- Activity (Glioblastoma cell line [12]): Active
- Activity (Glioblastoma stem cell [13]; filed as activator): Active

SMILES: CCCCCCOCCOCCOCCOCCCCCCCCCCCCNC(=O)c1ccsc1
- inhibition (Glioblastoma stem cell [1]): inactive

SMILES: COCCOCCOCCOCCCCCCCCCCCCNC(=O)c1csc(C)c1
- inhibition (Glioblastoma stem cell [1]): inactive
- Activity (Glioblastoma stem cell [11]): inactive
- Activity (Glioblastoma stem cell [13]): inactive

SMILES: O=C(NCCCCCCCCCCCCOCCOCCOCCO)c1ccsc1
- inhibition (Glioblastoma stem cell [1]): inactive

SMILES: CCCCCCCCCCCC[C@@H](O)[C@@H]1CC[C@@H]([C@H](O)CCCCCCCCCCNC(=O)c2ccsc2)O1
- CI (U-251 [6]): 0.972
- EC50 (U-251 [7]): 0.179 µM
- Activity [14]: 153000

SMILES: COCCOCCOCCOCCCCCCCCCCCCNC(=O)c1ccsc1C
- inhibition (Glioblastoma stem cell [1]): inactive

SMILES: COCCOCCOCCOCCCCCCCCCCCCNC(=O)c1csc(Br)c1
- inhibition (Glioblastoma stem cell [1]): inactive

SMILES: CCCCCCCCCOCCOCCOCCOCCCCCCCCCCCCNC(=O)c1ccsc1
- inhibition (Glioblastoma stem cell [1]): Active
- Activity (Glioblastoma stem cell [11]; filed as activator): Active
- Activity (Glioblastoma stem cell [13]; filed as activator): Active

SMILES: COCCOCCOCCOCCCCCCCCCCCCNC(=O)c1cscc1Br
- inhibition (Glioblastoma stem cell [15]): Active

SMILES: COCCOCCOCCOCCCCCCCCCCCCNC(=O)c1ccsc1
- inhibition (Glioblastoma stem cell [1]): inactive
- Activity [14]: 483000
- inhibition (Glioblastoma stem cell [15]): Active

SMILES: COCCOCCOCCOCCCCCCCCCCCCNC(=O)c1cscc1C
- inhibition (Glioblastoma stem cell [1]): inactive

SMILES: CCCOCCOCCOCCOCCCCCCCCCCCCNC(=O)c1ccsc1
- inhibition (Glioblastoma stem cell [1]): inactive
- inhibition (Glioblastoma stem cell [15]): Active
